Data taken from ChEMBL document CHEMBL1201862, “PubChem BioAssay data set” (2004).
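96-well plates; 48 h exposure; 5 concentrations. Endpoints by linear interpolation between flanking doses. Not reached: highest tested concentration assigned. GI50 = concentration required for 50% inhibition of growth.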 Calls of active or inactive are those of the source. Cut-off read from the data, not from the text of the source: active = GI50 up to about 1.1 µM and inactive = higher.

Legend:
Test in all cases: growth of human tumour cells (NCI), 48 h
Malme-3M = system: Malme-3M
NCI-H23 = system: NCI-H23
OVCAR-8 = system: OVCAR-8
U-251 = system: U-251
CCRF-CEM = system: CCRF-CEM
BT-549 = system: BT-549
PC-3 = system: PC-3
SK-MEL-2 = system: SK-MEL-2
SR = system: SR
HCT-15 = system: HCT-15
A498 = system: A498
OVCAR-4 = system: OVCAR-4
SF-268 = system: SF-268
HCT-116 = system: HCT-116
RPMI-8226 = system: RPMI-8226
HL-60 = system: HL-60
HOP-92 = system: HOP-92
NCI-H522 = system: NCI-H522
MDA-N = system: MDA-N
SK-MEL-5 = system: SK-MEL-5
DU-145 = system: DU-145
RXF 393 = system: RXF 393
SNB-75 = system: SNB-75
HOP-62 = system: HOP-62
MDA-MB-435 = system: MDA-MB-435
ACHN = system: ACHN
SK-OV-3 = system: SK-OV-3
A549 = system: A549
EKVX = system: EKVX
UACC-257 = system: UACC-257
K562 = system: K562
SW-620 = system: SW-620
NCI/ADR-RES = system: NCI/ADR-RES
HT-29 = system: HT-29
SF-539 = system: SF-539
HCC 2998 = system: HCC 2998
UO-31 = system: UO-31
MOLT-4 = system: MOLT-4
SNB-19 = system: SNB-19
SK-MEL-28 = system: SK-MEL-28
IGROV-1 = system: IGROV-1
TK-10 = system: TK-10
NCI-H226 = system: NCI-H226
SN12C = system: SN12C
Hs-578T = system: Hs-578T
NCI-H460 = system: NCI-H460
OVCAR-5 = system: OVCAR-5
T47D = system: T47D
MDA-MB-231 = system: MDA-MB-231
786-0 = system: 786-0
CAKI-1 = system: CAKI-1
KM12 = system: KM12
OVCAR-3 = system: OVCAR-3
MCF7 = system: MCF7
M14 = system: M14
SF-295 = system: SF-295
UACC-62 = system: UACC-62
COLO 205 = system: COLO 205
LOX IMVI = system: LOX IMVI

With `C=CC[C@]12C[C@@H](C(=O)OC)N(C(=O)OC)[C@H]1N(S(=O)(=O)c1ccccc1)c1ccccc12` the GI50 (Malme-3M) was 91.8 µM (inactive), the GI50 (NCI-H23) was 34.1 µM (inactive) and the GI50 (OVCAR-8) was > 100 µM (inactive). For the same compound, the GI50 (U-251) was 61.9 µM (inactive), the GI50 (CCRF-CEM) was 82.6 µM (inactive) and the GI50 (BT-549) was > 100 µM (inactive). For the same compound, the GI50 (PC-3) was 34.6 µM (inactive), the GI50 (SK-MEL-2) was 42.3 µM (inactive) and the GI50 (SR) was 38.4 µM (inactive). The GI50 (HCT-15) was 40.1 µM, the GI50 (A498) was 81.1 µM (inactive) and the GI50 (OVCAR-4) was 47.1 µM (inactive). For the same compound, the GI50 (SF-268) was 78.2 µM (inactive), the GI50 (HCT-116) was 62.2 µM (inactive) and the GI50 (RPMI-8226) was 44.3 µM (inactive). The GI50 (HL-60) was 29.6 µM (inactive), the GI50 (HOP-92) was 42.6 µM (inactive) and the GI50 (NCI-H522) was 42.3 µM (inactive). For the same compound, the GI50 (MDA-N) was 41.8 µM (inactive), the GI50 (SK-MEL-5) was 58.5 µM (inactive) and the GI50 (DU-145) was 33.5 µM (inactive). For the same compound, the GI50 (RXF 393) was 26 µM (inactive), the GI50 (SNB-75) was 21.5 µM (inactive) and the GI50 (HOP-62) was > 100 µM (inactive). For the same compound, the GI50 (MDA-MB-435) was 28.2 µM (inactive), the GI50 (ACHN) was 95.1 µM (inactive) and the GI50 (SK-OV-3) was 35.6 µM (inactive). The GI50 (A549) was 88.5 µM (inactive), the GI50 (EKVX) was 31.2 µM (inactive) and the GI50 (UACC-257) was 45.7 µM (inactive). The GI50 (K562) was 41.1 µM (inactive), the GI50 (SW-620) was > 100 µM (inactive) and the GI50 (NCI/ADR-RES) was 68.2 µM (inactive). For the same compound, the GI50 (HT-29) was > 100 µM (inactive), the GI50 (SF-539) was > 100 µM (inactive) and the GI50 (HCC 2998) was 44.2 µM (inactive). The GI50 (UO-31) was 56 µM (inactive), the GI50 (MOLT-4) was 33 µM (inactive) and the GI50 (SNB-19) was > 100 µM (inactive). The GI50 (SK-MEL-28) was > 100 µM (inactive), the GI50 (IGROV-1) was 43.1 µM (inactive) and the GI50 (TK-10) was > 100 µM (inactive). For the same compound, the GI50 (NCI-H226) was > 100 µM (inactive), the GI50 (SN12C) was 89.7 µM (inactive) and the GI50 (Hs-578T) was 42.9 µM (inactive). For the same compound, the GI50 (NCI-H460) was 73.8 µM (inactive), the GI50 (OVCAR-5) was 31.4 µM (inactive) and the GI50 (T47D) was 30.9 µM (inactive). The GI50 (MDA-MB-231) was 36.2 µM (inactive), the GI50 (786-0) was > 100 µM (inactive) and the GI50 (CAKI-1) was > 100 µM (inactive). The GI50 (KM12) was 85.5 µM (inactive), the GI50 (OVCAR-3) was 87.9 µM (inactive) and the GI50 (MCF7) was 41.3 µM (inactive).
For `O=c1[nH]c(Cc2ccccc2)nc2c1sc1nc3ccccc3n12`, the GI50 (NCI-H23) was > 100 µM (inactive), the GI50 (OVCAR-8) was > 100 µM (inactive) and the GI50 (U-251) was > 100 µM (inactive). For the same compound, the GI50 (CCRF-CEM) was > 100 µM (inactive), the GI50 (M14) was > 100 µM (inactive) and the GI50 (BT-549) was > 100 µM (inactive). For the same compound, the GI50 (PC-3) was > 100 µM (inactive), the GI50 (SK-MEL-2) was > 100 µM (inactive) and the GI50 (SR) was > 100 µM (inactive). For the same compound, the GI50 (SF-295) was > 100 µM (inactive), the GI50 (UACC-62) was > 100 µM (inactive) and the GI50 (HCT-15) was > 100 µM. For the same compound, the GI50 (A498) was > 100 µM (inactive), the GI50 (SF-268) was > 100 µM (inactive) and the GI50 (HCT-116) was > 100 µM (inactive). For the same compound, the GI50 (RPMI-8226) was > 100 µM (inactive), the GI50 (HL-60) was > 100 µM (inactive) and the GI50 (COLO 205) was > 100 µM (inactive). The GI50 (HOP-92) was > 100 µM (inactive), the GI50 (NCI-H522) was > 100 µM (inactive) and the GI50 (MDA-N) was > 100 µM (inactive). The GI50 (LOX IMVI) was > 100 µM (inactive), the GI50 (SK-MEL-5) was > 100 µM (inactive) and the GI50 (DU-145) was > 100 µM (inactive). For the same compound, the GI50 (RXF 393) was > 100 µM (inactive), the GI50 (SNB-75) was > 100 µM (inactive) and the GI50 (MDA-MB-435) was > 100 µM (inactive). For the same compound, the GI50 (ACHN) was > 100 µM (inactive), the GI50 (SK-OV-3) was > 100 µM (inactive) and the GI50 (A549) was > 100 µM (inactive). For the same compound, the GI50 (EKVX) was > 100 µM (inactive), the GI50 (UACC-257) was > 100 µM (inactive) and the GI50 (SW-620) was > 100 µM (inactive). For the same compound, the GI50 (NCI/ADR-RES) was > 100 µM (inactive), the GI50 (HT-29) was > 100 µM (inactive) and the GI50 (SF-539) was > 100 µM (inactive). For the same compound, the GI50 (HCC 2998) was > 100 µM (inactive), the GI50 (UO-31) was > 100 µM (inactive) and the GI50 (MOLT-4) was > 100 µM (inactive). The GI50 (SNB-19) was > 58.3 µM (inactive), the GI50 (SK-MEL-28) was > 100 µM (inactive) and the GI50 (IGROV-1) was > 100 µM (inactive). For the same compound, the GI50 (TK-10) was > 100 µM (inactive), the GI50 (NCI-H226) was > 100 µM (inactive) and the GI50 (SN12C) was > 100 µM (inactive). The GI50 (Hs-578T) was > 100 µM (inactive), the GI50 (NCI-H460) was > 100 µM (inactive) and the GI50 (OVCAR-5) was > 100 µM (inactive). For the same compound, the GI50 (T47D) was 60.5 µM (inactive), the GI50 (MDA-MB-231) was > 100 µM (inactive) and the GI50 (786-0) was > 100 µM (inactive). For the same compound, the GI50 (CAKI-1) was > 100 µM (inactive), the GI50 (KM12) was > 100 µM (inactive) and the GI50 (OVCAR-3) was > 100 µM (inactive). The GI50 (MCF7) was > 100 µM (inactive).
In the case of `O=[N+]([O-])c1cc(Br)cc2cc(Cl)cnc12`, the GI50 (Malme-3M) is reported as > 100 µM (inactive), the GI50 (NCI-H23) is reported as > 100 µM (inactive) and the GI50 (OVCAR-8) is reported as 62.4 µM (inactive). The GI50 (U-251) was > 100 µM (inactive), the GI50 (CCRF-CEM) was > 100 µM (inactive) and the GI50 (M14) was > 100 µM (inactive). The GI50 (BT-549) was 72.4 µM (inactive), the GI50 (PC-3) was > 100 µM (inactive) and the GI50 (SR) was > 100 µM (inactive). The GI50 (SF-295) was 70.6 µM (inactive), the GI50 (UACC-62) was 61.4 µM (inactive) and the GI50 (HCT-15) was > 100 µM. The GI50 (A498) was 75.7 µM (inactive), the GI50 (OVCAR-4) was > 100 µM (inactive) and the GI50 (SF-268) was 89.9 µM (inactive). The GI50 (HCT-116) was > 100 µM (inactive), the GI50 (RPMI-8226) was > 100 µM (inactive) and the GI50 (HL-60) was 57.8 µM (inactive). The GI50 (COLO 205) was > 100 µM (inactive), the GI50 (HOP-92) was 1.02 µM (active) and the GI50 (NCI-H522) was > 100 µM (inactive). For the same compound, the GI50 (MDA-N) was > 100 µM (inactive), the GI50 (LOX IMVI) was 82.6 µM (inactive) and the GI50 (SK-MEL-5) was 81.8 µM (inactive). For the same compound, the GI50 (DU-145) was > 100 µM (inactive), the GI50 (RXF 393) was 71.8 µM (inactive) and the GI50 (SNB-75) was 31.8 µM (inactive). The GI50 (HOP-62) was > 100 µM (inactive), the GI50 (MDA-MB-435) was > 100 µM (inactive) and the GI50 (ACHN) was > 100 µM (inactive). For the same compound, the GI50 (SK-OV-3) was 86.9 µM (inactive), the GI50 (A549) was > 100 µM (inactive) and the GI50 (EKVX) was > 100 µM (inactive). For the same compound, the GI50 (UACC-257) was > 100 µM (inactive), the GI50 (K562) was > 100 µM (inactive) and the GI50 (SW-620) was 14.5 µM (inactive). The GI50 (NCI/ADR-RES) was > 100 µM (inactive), the GI50 (HT-29) was > 100 µM (inactive) and the GI50 (SF-539) was > 100 µM (inactive). For the same compound, the GI50 (HCC 2998) was > 100 µM (inactive), the GI50 (UO-31) was > 100 µM (inactive) and the GI50 (MOLT-4) was > 100 µM (inactive). The GI50 (SNB-19) was > 100 µM (inactive), the GI50 (SK-MEL-28) was > 100 µM (inactive) and the GI50 (IGROV-1) was 10.1 µM (inactive). The GI50 (TK-10) was > 100 µM (inactive), the GI50 (NCI-H226) was > 100 µM (inactive) and the GI50 (SN12C) was > 100 µM (inactive). For the same compound, the GI50 (Hs-578T) was 36.9 µM (inactive), the GI50 (NCI-H460) was > 100 µM (inactive) and the GI50 (OVCAR-5) was > 100 µM (inactive). For the same compound, the GI50 (T47D) was 39.8 µM (inactive), the GI50 (MDA-MB-231) was > 100 µM (inactive) and the GI50 (786-0) was > 100 µM (inactive). The GI50 (CAKI-1) was > 100 µM (inactive), the GI50 (KM12) was > 100 µM (inactive) and the GI50 (OVCAR-3) was > 100 µM (inactive). For the same compound, the GI50 (MCF7) was 35.5 µM (inactive).
